Results as given in ChEMBL document CHEMBL1138237, “Synthesis and anti-inflammatory/antioxidant activities of some new ring substituted 3-phenyl-1-(1,4-di-N-oxide quinoxalin-2-yl)-2-propen-1-one derivatives and of their 4,5-dihydro-(1H)-pyrazole analogues” (Bioorg Med Chem Lett, 2007).

Legend:
[1] = test system: Radical scavenging activity; assay: Antioxidant activity assessed as DPPH radical scavenging activity at 0.1 mM after 60 mins; type: functional
[2] = test system: Radical scavenging activity; assay: Antioxidant activity assessed as DPPH radical scavenging activity at 0.05 mM after 20 mins; type: functional
[3] = test system: Radical scavenging activity; assay: Antioxidant activity assessed as DPPH radical scavenging activity at 0.05 mM after 60 mins; type: functional
[4] = test system: Radical scavenging activity; assay: Antioxidant activity assessed as DPPH radical scavenging activity at 0.1 mM after 20 mins; type: functional
[5] = Antioxidant activity assessed as hydroxyl radical scavenging activity at 0.1 mM; type: functional
[6] = Antioxidant activity assessed as superoxide radical scavenging activity at 0.1 mM by nitroblue tetrazolium method; type: functional
[7] = test system: Rattus norvegicus; assay: Antiinflammatory activity against carrageenan-induced paw edema rat model at 0.01 mmol/ml/kg; type: functional
[8] = target: T1, Seed linoleate 13S-lipoxygenase-1 (Glycine max, UniProt P08170); assay: Inhibition of soybean lipoxygenase
T1 sequence (P08170 whole entry): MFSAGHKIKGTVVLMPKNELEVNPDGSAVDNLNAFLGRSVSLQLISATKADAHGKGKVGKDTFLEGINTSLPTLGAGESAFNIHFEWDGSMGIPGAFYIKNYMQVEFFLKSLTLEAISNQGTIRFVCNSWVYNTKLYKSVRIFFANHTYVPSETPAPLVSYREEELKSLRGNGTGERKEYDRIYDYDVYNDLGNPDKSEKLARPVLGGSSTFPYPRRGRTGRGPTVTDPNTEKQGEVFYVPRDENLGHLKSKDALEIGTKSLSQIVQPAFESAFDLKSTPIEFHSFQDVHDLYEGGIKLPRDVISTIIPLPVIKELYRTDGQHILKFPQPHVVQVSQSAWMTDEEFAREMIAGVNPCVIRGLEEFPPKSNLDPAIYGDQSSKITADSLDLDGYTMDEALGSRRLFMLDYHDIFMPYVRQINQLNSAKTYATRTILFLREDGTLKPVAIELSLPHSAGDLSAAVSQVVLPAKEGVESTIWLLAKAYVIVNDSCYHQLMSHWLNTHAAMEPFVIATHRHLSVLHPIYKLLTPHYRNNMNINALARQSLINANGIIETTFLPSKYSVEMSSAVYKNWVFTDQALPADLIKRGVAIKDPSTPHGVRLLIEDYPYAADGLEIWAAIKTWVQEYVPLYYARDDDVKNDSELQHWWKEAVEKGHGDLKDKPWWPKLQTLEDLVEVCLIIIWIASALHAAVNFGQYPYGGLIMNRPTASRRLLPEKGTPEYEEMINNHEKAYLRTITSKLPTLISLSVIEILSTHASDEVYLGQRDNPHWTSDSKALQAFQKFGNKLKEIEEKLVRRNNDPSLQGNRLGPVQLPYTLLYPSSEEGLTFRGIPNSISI

[9] = target: T2, Seed linoleate 13S-lipoxygenase-1 (Glycine max) (UniProt P08170); assay: Inhibition of soybean lipoxygenase at 100 uM
T2 sequence (whole entry): T1 sequence (P08170 whole entry)

With `CC(Cc1ccc(O)c(O)c1)C(C)Cc1ccc(O)c(O)c1` (stereo not given) the Activity [1] was 82.6%, the Activity [2] was 68% and the Activity [3] was 72%. For the same molecule, the Activity [4] was 81%.
With `COc1cc(/C=C/C(=O)c2c(C)[n+]([O-])c3ccccc3[n+]2[O-])ccc1O` the Activity [1] was 56%, the Activity [5] was 100% and the Activity [6] was 12.5%. For the same molecule, the Inhibition [7] was 56.1%, the IC50 [8] was less than 1 µM and the Activity [4] was 39.4%.
`COc1ccc2c(c1)c(CC(=O)O)c(C)n2C(=O)c1ccc(Cl)cc1` [INDOMETHACIN] gave an Inhibition [7] of 47%.
In the case of `COc1cc(/C=C/C(=O)c2c(C)[n+]([O-])c3ccc(F)cc3[n+]2[O-])ccc1O`, the Activity [1] is reported as 52%, the Activity [5] is reported as 99.7% and the Inhibition [7] is reported as 36.3%. For the same molecule, the IC50 [8] was 85 µM, the Activity [2] was 36.4% and the Activity [3] was 38.4%. The Activity [4] was 45.3%.
With `COc1ccc2c(c1)[n+]([O-])c(C(=O)/C=C/c1ccc(O)c(OC)c1)c(C)[n+]2[O-]` the Activity [1] was 70.4%, the Activity [5] was 97.3% and the inhibition [9] was 55.7%. For the same molecule, the Inhibition [7] was 21.3%, the Activity [2] was 45% and the Activity [3] was 59%. It also gave an Activity [4] of 51%.
Work on `Cc1c(C)c2c(c(C)c1O)CCC(C)(C(=O)O)O2` (stereo not given) yielded an Activity [5] of 73.4%.
`COc1cc(C2CC(c3c(C)[n+]([O-])c4ccc(F)cc4[n+]3[O-])=NN2)cc(OC)c1OC` (stereo not given) gave an Activity [1] of 68%, an Activity [5] of 99.3% and an Inhibition [7] of 23.4%. It also gave an IC50 [8] of 70 µM, an Activity [2] of 58% and an Activity [3] of 67%. For the same molecule, the Activity [4] was 51.6%.
For `COc1cc(/C=C/C(=O)c2c(C)[n+]([O-])c3ccccc3[n+]2[O-])cc(OC)c1OC`, the Activity [5] was 99%, the Activity [6] was 100% and the Inhibition [7] was 55.4%. The IC50 [8] was 42 µM.
`Cc1c(C(=O)/C=C/c2ccc3c(c2)OCO3)[n+]([O-])c2ccccc2[n+]1[O-]` gave an Activity [1] of 3%, an Activity [5] of 96% and an Inhibition [7] of 4.5%. For the same molecule, the IC50 [8] was 31 µM and the Activity [4] was 1%.
`O=C(O)/C=C/c1ccc(O)c(O)c1` gave an Activity [6] of 45%.
For `COc1cc(C2CC(c3c(C)[n+]([O-])c4ccccc4[n+]3[O-])=NN2)cc(OC)c1OC` (stereo not given), the Activity [1] was 38%, the Activity [5] was 93.4% and the inhibition [9] was 67.3%. It also gave an Inhibition [7] of 24.3%, an Activity [2] of 42% and an Activity [3] of 46%. For the same molecule, the Activity [4] was 31%.
